Key:
Assay in all cases: relative viability (nuclei count vs DMSO), 5 days (fraction); higher = more cells survive
Selumetinib + Dasatinib = compound: Cn1cnc2c(F)c(Nc3ccc(Br)cc3Cl)c(C(=O)NOCCO)cc21 [Selumetinib] + Cc1nc(Nc2ncc(C(=O)Nc3c(C)cccc3Cl)s2)cc(N2CCN(CCO)CC2)n1 [Dasatinib] (partner 0.075 µM)
Procedure, shortened: (§1)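 Lung cancer cell lines, seeded in 1536-well plates, were treated the following day by pin tool with a single drug or with five library-drug doses (not always all listed) in √10 steps on top of a fixed anchor-drug dose. Cells were fixed and nuclei stained in one step after 5 days, and nuclei were counted. Relative viability is the nuclei count for treated wells divided by that for vehicle wells, reported as medians of duplicate plates.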

Selumetinib + Vorinostat = compound: Cn1cnc2c(F)c(Nc3ccc(Br)cc3Cl)c(C(=O)NOCCO)cc21 [Selumetinib] + O=C(CCCCCCC(=O)Nc1ccccc1)NO [Vorinostat] (partner 1 µM)
Procedure, shortened: as §1

Selumetinib + Decitabine = compound: Cn1cnc2c(F)c(Nc3ccc(Br)cc3Cl)c(C(=O)NOCCO)cc21 [Selumetinib] + Nc1ncn([C@H]2C[C@H](O)[C@@H](CO)O2)c(=O)n1 [Decitabine] (partner 2 µM)
Procedure, shortened: as §1

Venetoclax + Vorinostat = compound: CC1(C)CCC(CN2CCN(c3ccc(C(=O)NS(=O)(=O)c4ccc(NCC5CCOCC5)c([N+](=O)[O-])c4)c(Oc4cnc5[nH]ccc5c4)c3)CC2)=C(c2ccc(Cl)cc2)C1 [Venetoclax] + O=C(CCCCCCC(=O)Nc1ccccc1)NO [Vorinostat] (partner 1 µM)
Procedure, shortened: as §1

Cell Line | relative viability (Selumetinib + Dasatinib; first compound 0.02 µM) | relative viability (Selumetinib + Dasatinib; first compound 0.06325 µM) | relative viability (Selumetinib + Dasatinib; first compound 0.2 µM) | relative viability (Selumetinib + Dasatinib; first compound 0.6325 µM) | relative viability (Selumetinib + Vorinostat; first compound 0.02 µM) | relative viability (Selumetinib + Vorinostat; first compound 0.06325 µM) | relative viability (Selumetinib + Vorinostat; first compound 0.2 µM) | relative viability (Selumetinib + Vorinostat; first compound 0.6325 µM) | relative viability (Selumetinib + Decitabine; first compound 0.02 µM) | relative viability (Selumetinib + Decitabine; first compound 0.06325 µM) | relative viability (Selumetinib + Decitabine; first compound 0.2 µM) | relative viability (Selumetinib + Decitabine; first compound 0.6325 µM) | relative viability (Venetoclax + Vorinostat; first compound 0.01 µM) | relative viability (Venetoclax + Vorinostat; first compound 0.03162 µM) | relative viability (Venetoclax + Vorinostat; first compound 0.1 µM) | relative viability (Venetoclax + Vorinostat; first compound 0.3162 µM) | relative viability (Venetoclax + Vorinostat; first compound 1 µM)
NCI-H838 | 0.275 | 0.254 | 0.304 | 0.267 | 0.644 | 0.54 | 0.654 | 0.636 | 0.446 | 0.421 | 0.45 | 0.448 | 0.699 | 0.72 | 0.709 | 0.769 | 0.719
HCC-15 | 0.296 | 0.231 | 0.19 | 0.146 | 0.656 | 0.586 | 0.435 | 0.393 | 0.556 | 0.449 | 0.438 | 0.392 | 0.8 | 0.799 | 0.812 | 0.841 | 0.853
NCI-H650 | 0.518 | 0.578 | 0.65 | 0.534 | 0.552 | 0.778 | 0.72 | 0.805 | 0.334 | 0.283 | 0.342 | 0.376 | 0.42 | 0.413 | 0.471 | 0.462 | 0.391
NCI-H1651 | 0.387 | 0.378 | 0.402 | 0.362 | 0.554 | 0.552 | 0.564 | 0.572 | 0.626 | 0.531 | 0.644 | 0.701 | 0.566 | 0.585 | 0.577 | 0.497 | 0.599
NCI-H2405 | 0.216 | 0.22 | 0.17 | 0.187 | 1.18 | 1.04 | 0.818 | 0.987 | 0.733 | 0.751 | 0.736 | 0.615 | 0.944 | 1.27 | 1.03 | 1.07 | 0.889
LU99A | 0.58 | 0.643 | 0.509 | 0.6 | 0.521 | 0.472 | 0.476 | 0.501 | 0.982 | 0.905 | 0.91 | 0.759 | 0.595 | 0.703 | 0.416 | 0.521 | 0.552
H3255 | 0.41 | 0.358 | 0.329 | 0.344 | 0.671 | 0.752 | 0.846 | 0.797 | 0.647 | 0.649 | 0.557 | 0.614 | 0.782 | 0.899 | 0.897 | 0.777 | 0.733
NCI-H522 | 1.96 | 0.849 | 0.861 | 0.96 | 0.855 | 0.846 | 0.851 | 0.921 | 0.837 | 0.585 | 0.692 | 0.7 | 1 | 0.849 | 0.96 | 0.839 | 0.896
NCI-H1993 | 0.545 | 0.534 | 0.572 | 0.609 | 0.85 | 0.6 | 0.597 | 0.612 | 0.571 | 0.615 | 0.549 | 0.604 | 0.747 | 1 | 0.714 | 0.728 | 0.615
NCI-H322M | 0.248 | 0.237 | 0.24 | 0.263 | 0.946 | 0.638 | 0.653 | 0.758 | 0.722 | 0.71 | 0.598 | 0.548 | 0.982 | 1 | 0.818 | 0.996 | 0.903
NCI-H460 | 0.332 | 0.272 | 0.155 | 0.128 | 0.48 | 0.492 | 0.428 | 0.228 | 0.432 | 0.484 | 0.402 | 0.326 | 0.602 | 0.684 | 0.653 | 0.739 | 0.6
NCI-H2170 | 0.533 | 0.515 | 0.48 | 0.412 | 0.905 | 0.74 | 0.705 | 0.786 | 0.469 | 0.488 | 0.452 | 0.439 | 0.685 | 0.763 | 0.682 | 0.804 | 0.742
SW 900 | 0.709 | 0.491 | 0.541 | 0.572 | 0.423 | 0.399 | 0.409 | 0.588 | 0.43 | 0.409 | 0.441 | 0.504 | 0.485 | 0.663 | 0.545 | 0.617 | 0.486
NCI-H1395 | 0.408 | 0.415 | 0.432 | 0.445 | 0.761 | 0.613 | 0.653 | 0.775 | 0.698 | 0.712 | 0.675 | 0.639 | 0.7 | 0.838 | 0.673 | 0.907 | 0.896
LC-2-ad | 0.724 | 0.501 | 0.427 | 0.559 | 0.653 | 0.723 | 0.665 | 0.67 | 0.73 | 0.817 | 0.781 | 0.776 | 0.721 | 0.729 | 0.641 | 0.69 | 0.686
NCI-H358 | 0.136 | 0.111 | 0.118 | 0.129 | 0.422 | 0.335 | 0.265 | 0.248 | 0.194 | 0.181 | 0.193 | 0.158 | 0.794 | 0.882 | 0.67 | 0.697 | 0.626
PC-3 [JPC-3] | 0.974 | 0.99 | 0.976 | 0.841 | 1.02 | 0.663 | 0.748 | 0.734 | 0.786 | 0.745 | 0.796 | 0.798 | 0.879 | 1.12 | 0.929 | 0.915 | 0.675
